According to ChEMBL document CHEMBL1143877, “Xylose as a carrier for boron containing compounds” (2008):

How the values were obtained:
T-24 [1] = experiment: Inhibition of tumor growth in human T24 cells xenografted sc dosed SCIDnodCA mouse; type: functional; set-up: scale not given: the % may be the effect or the level left
T-24 [2] = experiment: Inhibition of tumor growth in human T24 cells xenografted orally dosed SCIDnodCA mouse; type: functional; set-up: scale not given: the % may be the effect or the level left

Q: With `Oc1ccc2cc(O[C@@H]3OC[C@@H](O)[C@H](O)[C@H]3O)ccc2c1` as the compound, how does the Activity (T-24 [1]) read?
A: 97%

Q: What about the Activity (T-24 [2]) of the same compound?
A: 70%
